Experimental data reported in US20050176784A1, “Malononitrile compounds and their use as pesticides” (priority 2002, published 2005).

How the values were obtained:
Assay type in all cases: in vivo
[1] = tested on: Musca domestics; assay: Test Example 3: filter paper with sucrose bait, Musca domestica imagoes; conditions: 0.7 ml on filter paper, ten female imagoes, after 24 hours, read-out: rate of dead pests
Method: The formulation obtained according to Formulation Example 5 using the present invention compounds (1), (2), (4), (8), (9), (10), (11), (13), (14) and (15) respectively, was diluted with water so that the active ingredient concentration came to 500 ppm to prepare a pesticidal solution for test.
(§1) On the bottom of a polyethylene cup having a diameter of 5.5 cm, a filter paper having the same diameter was laid, and 0.7 ml of the above pesticidal solution for test was added dropwise on the filter paper, followed by putting 30 mg of sucrose on it uniformly as a bait. Ten female Musca domestics imagoes were set free in the polyethylene cup and covered it with a lid. After 24 hours, the number of surviving Musca domestics was examined and the rate of dead pests was calculated.

[2] = tested on: Blattella germanica; assay: Test Example 4: filter paper with sucrose bait, Blattella germanica imagoes; conditions: 144 h, 0.7 ml on filter paper, two male imagoes, after 6 days, read-out: rate of dead pests
Method: The formulation obtained according to Formulation Example 5 using the present invention compounds (1), (4), (8), (9), (11), (12), (13) and (14) respectively, was diluted with water so that the active ingredient concentration came to 500 ppm to prepare a pesticidal solution for test.
as §1, with “Two male Blattella germanica” for “Ten female Musca domestics”, “6 days,” for “24 hours,”, “Blattella germanica” for “Musca domestics”

[3] = tested on: Culex pipiens pallens; assay: Test Example 5: larvae in treated water, Culex pipiens pallens; conditions: 24 h, active ingredient concentration 3.5 ppm in water, twenty last-instar larvae, after one day, read-out: rate of dead pests
Method: The formulation obtained according to Formulation Example 5 using the present invention compounds (3), (4), (8), (9), (10), (11), (12), (13), (14) and (15) respectively, was diluted with water so that the active ingredient concentration came to 500 ppm to prepare a pesticidal solution for test. 0.7 ml of above pesticidal solution for test was added to 100 ml of ion exchanged water (active ingredient concentration: 3.5 ppm). Twenty last-instar larvae of Culex pipiens pallens were set free in the solution. After one day, the number of surviving Culex pipiens pallens was examined and the rate of dead pests was calculated.

SMILES | pest or weed control at 500 ppm [1] [%] | pest or weed control at 500 ppm [2] [%] | pest or weed control at 3.5 ppm [3] [%]
C=CCC(C#N)(C#N)Cc1ccc(Cl)nc1 [Compound 1, 2-allyl-2-((6-Chloro-3-pyridyl)methyl)malononitrile] | ≥ 90 | 100 | 
C=CCC(C#N)(C#N)C(C#N)c1ccc(Cl)nc1 (stereo not shown) [Compound 2, 1-(6-Chloro-3-pyridyl)-1,2,2-tricyano-4-pentene] | ≥ 90 |  | 
N#CC(C#N)(CCC(F)=C(F)F)Cc1ccc(Cl)nc1 [Compound 3, 2-((6-Chloro-3-pyridyl)methyl)-2-(3,4,4-trifluoro-3-butenyl)malononitrile] |  |  | 100
N#CC(C#N)(CCC(F)(F)F)Cc1ccc(Cl)nc1 [Compound 4, 2-((6-Chloro-3-pyridyl)methyl)-2-(3,3,3-trifluoropropyl)malononitrile] | ≥ 90 | 100 | 100
N#CC(C#N)(CCC(F)(F)F)Cc1cccc(Cl)n1 [Compound 8, 2-((6-chloro-2-pyridyl)methyl)-2-(3,3,3-trifluoropropyl)malononitrile] | ≥ 90 | 100 | 100
N#CC(C#N)(CCC(F)(F)F)Cc1ccc(C(F)(F)F)nc1 [Compound 9, 2-((6-(trifluoromethyl)-3-pyridyl)methyl)-2-(3,3,3-trifluoropropyl)malononitrile] | ≥ 90 | 100 | 100
N#CC(C#N)(CCC(F)(F)F)Cc1ccc(Br)nc1 [Compound 10, 2-((6-bromo-3-pyridyl)methyl)-2-(3,3,3-trifluoropropyl)malononitrile] | ≥ 90 |  | 100
C#Cc1ccc(CC(C#N)(C#N)CCC(F)(F)F)cn1 [Compound 11, 2-((6-ethynyl-3-pyridyl)methyl)-2-(3,3,3-trifluoropropyl)malononitrile] | ≥ 90 | 100 | 100
N#Cc1ccc(CC(C#N)(C#N)CCC(F)(F)F)cn1 [Compound 12, 2-((6-cyano-3-pyridyl)methyl)-2-(3,3,3-trifluoropropyl)malononitrile] |  | 100 | 100
N#CC(C#N)(CCC(F)(F)F)Cc1ccc(F)nc1 [Compound 13, 2-((6-fluoro-3-pyridyl)methyl)-2-(3,3,3-trifluoropropyl)malononitrile] | ≥ 90 | 100 | 100
N#CC(C#N)(CCC(F)(F)F)Cc1cccc(Br)n1 [Compound 14, 2-((6-bromo-2-pyridyl)methyl)-2-(3,3,3-trifluoropropyl)malononitrile] | ≥ 90 | 100 | 100
N#CC(C#N)(CCC(F)(F)F)Cc1cnc(Cl)c(Cl)c1 [Compound 15, 2-((5,6-dichloro-3-pyridyl)methyl)-2-(3,3,3-trifluoropropyl)malononitrile] | ≥ 90 |  | 100
